Paper PMC6197228, “Inhibition of TBK1/IKKε Promotes Regeneration of Pancreatic β-cells” (Scientific Reports, 2018)

Key:
Type in all cases: biochemical
[1] = biological target: T1, TANK-binding kinase 1 (TBK1) (Homo sapiens, UniProt Q9UHD2); assay: kinase profiling, dose response IC50
T1 sequence (Q9UHD2 1-729): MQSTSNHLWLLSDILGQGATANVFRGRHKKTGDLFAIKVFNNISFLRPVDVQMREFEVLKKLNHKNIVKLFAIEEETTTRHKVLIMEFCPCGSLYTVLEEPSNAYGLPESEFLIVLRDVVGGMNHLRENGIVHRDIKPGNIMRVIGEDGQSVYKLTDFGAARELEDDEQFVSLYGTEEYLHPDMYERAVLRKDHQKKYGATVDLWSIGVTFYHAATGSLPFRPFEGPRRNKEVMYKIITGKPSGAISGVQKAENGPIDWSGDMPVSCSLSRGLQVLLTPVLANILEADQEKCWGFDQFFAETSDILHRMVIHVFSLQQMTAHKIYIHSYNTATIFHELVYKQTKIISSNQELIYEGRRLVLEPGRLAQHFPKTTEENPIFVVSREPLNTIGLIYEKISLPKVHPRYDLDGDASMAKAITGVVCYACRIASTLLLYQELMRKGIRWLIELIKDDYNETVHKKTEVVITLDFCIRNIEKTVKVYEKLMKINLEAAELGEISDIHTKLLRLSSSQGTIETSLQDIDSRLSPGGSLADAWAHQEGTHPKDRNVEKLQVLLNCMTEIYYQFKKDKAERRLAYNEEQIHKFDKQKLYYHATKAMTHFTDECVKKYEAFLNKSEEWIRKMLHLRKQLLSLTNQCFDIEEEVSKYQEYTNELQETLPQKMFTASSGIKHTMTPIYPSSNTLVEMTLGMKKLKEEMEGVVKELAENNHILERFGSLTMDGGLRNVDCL

[2] = biological target: T2, IKKα (Homo sapiens, UniProt O15111); assay: kinase profiling, dose response IC50 (selectivity)
T2 construct: gene CHUK
T2 sequence (O15111 1-745): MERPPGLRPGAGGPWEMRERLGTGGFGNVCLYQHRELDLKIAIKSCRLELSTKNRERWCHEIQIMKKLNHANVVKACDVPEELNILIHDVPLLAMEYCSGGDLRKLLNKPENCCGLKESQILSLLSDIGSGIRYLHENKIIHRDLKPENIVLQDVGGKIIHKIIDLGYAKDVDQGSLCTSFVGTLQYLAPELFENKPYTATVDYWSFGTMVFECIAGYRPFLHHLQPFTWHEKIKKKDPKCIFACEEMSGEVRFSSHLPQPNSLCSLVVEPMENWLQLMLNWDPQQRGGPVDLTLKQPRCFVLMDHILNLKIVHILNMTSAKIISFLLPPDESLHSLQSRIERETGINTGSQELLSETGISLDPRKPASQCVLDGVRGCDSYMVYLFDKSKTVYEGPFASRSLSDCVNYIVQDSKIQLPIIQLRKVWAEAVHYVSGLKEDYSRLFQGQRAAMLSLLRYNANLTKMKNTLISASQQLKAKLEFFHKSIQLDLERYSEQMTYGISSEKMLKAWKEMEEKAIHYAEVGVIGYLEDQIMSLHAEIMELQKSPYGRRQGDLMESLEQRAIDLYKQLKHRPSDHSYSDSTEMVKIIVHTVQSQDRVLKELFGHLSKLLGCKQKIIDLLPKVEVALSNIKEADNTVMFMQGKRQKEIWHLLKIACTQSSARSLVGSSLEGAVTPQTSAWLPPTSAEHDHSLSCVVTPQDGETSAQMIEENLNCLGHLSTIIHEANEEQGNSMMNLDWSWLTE

[3] = biological target: T3, IκB kinase ε (IKKε) (Homo sapiens, UniProt Q14164); assay: kinase profiling, dose response IC50
T3 construct: gene IKBKE
T3 sequence (Q14164 1-716): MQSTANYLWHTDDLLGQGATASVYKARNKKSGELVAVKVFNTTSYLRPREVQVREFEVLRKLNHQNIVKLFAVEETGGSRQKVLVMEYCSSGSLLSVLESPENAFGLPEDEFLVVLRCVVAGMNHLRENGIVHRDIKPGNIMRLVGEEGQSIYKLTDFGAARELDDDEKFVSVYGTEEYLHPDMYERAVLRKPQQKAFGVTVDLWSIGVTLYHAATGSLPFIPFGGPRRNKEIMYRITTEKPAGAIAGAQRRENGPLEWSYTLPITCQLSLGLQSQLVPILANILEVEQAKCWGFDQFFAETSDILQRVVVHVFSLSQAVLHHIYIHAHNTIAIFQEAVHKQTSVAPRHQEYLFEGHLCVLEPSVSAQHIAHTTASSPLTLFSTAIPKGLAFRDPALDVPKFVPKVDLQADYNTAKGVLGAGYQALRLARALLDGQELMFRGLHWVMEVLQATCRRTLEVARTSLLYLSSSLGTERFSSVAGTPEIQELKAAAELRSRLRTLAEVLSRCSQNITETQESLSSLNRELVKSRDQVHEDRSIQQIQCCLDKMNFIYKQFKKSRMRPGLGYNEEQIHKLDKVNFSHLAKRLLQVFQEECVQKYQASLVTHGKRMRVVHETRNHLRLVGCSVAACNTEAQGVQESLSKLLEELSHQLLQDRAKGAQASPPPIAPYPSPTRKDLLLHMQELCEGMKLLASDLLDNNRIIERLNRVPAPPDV

[4] = biological target: T4, IKKβ (Homo sapiens, UniProt O14920); assay: kinase profiling, dose response IC50 (selectivity)
T4 construct: gene IKBKB
T4 sequence (O14920 1-756): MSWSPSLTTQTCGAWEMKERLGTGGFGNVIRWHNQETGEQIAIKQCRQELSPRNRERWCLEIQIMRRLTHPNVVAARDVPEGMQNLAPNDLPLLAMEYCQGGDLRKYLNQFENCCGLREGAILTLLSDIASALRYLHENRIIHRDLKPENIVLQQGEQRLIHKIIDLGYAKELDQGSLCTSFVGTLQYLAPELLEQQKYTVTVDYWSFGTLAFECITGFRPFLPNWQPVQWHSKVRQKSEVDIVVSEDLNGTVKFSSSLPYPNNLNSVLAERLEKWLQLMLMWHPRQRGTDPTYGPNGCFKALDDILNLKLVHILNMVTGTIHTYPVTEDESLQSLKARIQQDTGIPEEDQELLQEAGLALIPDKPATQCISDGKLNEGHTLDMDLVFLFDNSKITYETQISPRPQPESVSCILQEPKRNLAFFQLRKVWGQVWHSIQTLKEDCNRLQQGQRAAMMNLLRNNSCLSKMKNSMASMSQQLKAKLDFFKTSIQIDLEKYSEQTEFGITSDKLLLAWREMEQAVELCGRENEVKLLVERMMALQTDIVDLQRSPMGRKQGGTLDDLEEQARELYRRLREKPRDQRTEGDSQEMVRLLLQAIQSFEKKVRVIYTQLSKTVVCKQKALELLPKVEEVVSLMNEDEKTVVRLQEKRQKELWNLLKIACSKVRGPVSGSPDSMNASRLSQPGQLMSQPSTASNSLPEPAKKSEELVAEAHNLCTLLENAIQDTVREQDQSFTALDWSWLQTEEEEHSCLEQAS

For `O=C(O)/C=C/c1ccc2noc(-c3ccccc3)c2c1` [PIAA, (E)-3-(3-phenylbenzo[c]isoxazol-5-yl)acrylic acid], the IC50 [1] was 0.4 µM, the IC50 [2] was 47.2 µM and the IC50 [3] was about 1.07 µM. The IC50 [4] was 50.5 µM.
